This note sets out measurements from ChEMBL document CHEMBL4130394, “Novel 6-substituted benzoyl and non-benzoyl straight chain pyrrolo[2,3-d]pyrimidines as potential antitumor agents with multitargeted inhibition of TS, GARFTase and AICARFTase” (Eur J Med Chem, 2017).

In general, inhibition refers to the drop in the measured response relative to a control, in per cent. The term Ki denotes a dissociation constant, usually derived from enzyme kinetics or from competition with a known ligand.

Calls of active or inactive are those of the source. The rule behind the calls is not given here.

In assay [1] the test system is SW-620. The experiment in a line: Antiproliferative activity against human SW620 cells in folate free medium after 72 hrs in presence of leucovorin by MTT assay. In kind it is functional, cell-based. As to conditions: SW-620, 72 h. In general terms: Formazan colour is commonly taken as a measure of viable cells.
Assay [2] has as its target T1, Thymidylate synthase/GAR transformylase/AICAR transformylase (Homo sapiens, UniProt P04818+P31939+P22102). The experiment in a line: Inhibition of TS/AICARFTase/GARFTase in human KB cells assessed as reduction in cell proliferation in folate free medium after 72 hrs in presence of leucovorin by MTT assay. In kind it is cell-based.
For assay [3], the system named is MCF7. The experiment in a line: Antiproliferative activity against human MCF7 cells in folate free medium after 72 hrs in presence of leucovorin by MTT assay. Format: functional, cell-based. The conditions noted are these: MCF7, 72 h.
Assay [4] concerns the target T2, Bifunctional purine biosynthesis protein ATIC (Homo sapiens, UniProt P31939). The assay can be described thus: Inhibition of AICARFTase in human KB cells assessed as reduction in cell proliferation at 1 to 10 nM after 72 hrs in presence of excess of AICA by MTT assay. In kind it is cell-based.
Target sequence in this assay (P31939 whole entry, looked up): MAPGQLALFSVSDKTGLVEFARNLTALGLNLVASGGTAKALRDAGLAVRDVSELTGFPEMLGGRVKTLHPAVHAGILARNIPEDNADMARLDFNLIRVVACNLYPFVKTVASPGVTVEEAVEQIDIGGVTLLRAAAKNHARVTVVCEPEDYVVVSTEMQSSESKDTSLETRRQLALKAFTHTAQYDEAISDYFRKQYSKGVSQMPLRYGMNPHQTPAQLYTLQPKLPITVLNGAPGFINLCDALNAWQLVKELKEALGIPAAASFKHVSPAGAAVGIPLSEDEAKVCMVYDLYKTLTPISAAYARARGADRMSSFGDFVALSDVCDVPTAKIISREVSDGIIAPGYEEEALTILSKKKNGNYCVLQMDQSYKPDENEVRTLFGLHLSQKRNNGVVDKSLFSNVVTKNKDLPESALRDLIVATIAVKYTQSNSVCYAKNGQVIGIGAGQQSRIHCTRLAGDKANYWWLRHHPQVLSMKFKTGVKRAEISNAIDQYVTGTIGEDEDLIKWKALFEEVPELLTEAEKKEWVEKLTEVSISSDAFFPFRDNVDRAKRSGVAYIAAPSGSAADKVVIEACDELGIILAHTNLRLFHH
For assay [5], the system named is KB. The experiment in a line: Induction of apoptosis in human KB cells assessed as necrotic cells at 1 uM after 48 hrs by Annexin V-FITC/propidium iodide staining based flow cytometry (reference value: 3%). Format: functional.
For assay [6], the system named is KB. The experiment in a line: Cell cycle arrest in human KB cells assessed as accumulation at G1 phase at 1 uM after 96 hrs by propidium iodide staining based flow cytometry (reference value: 54.75%). In kind it is functional. (In general: Flow cytometry measures light scatter and fluorescence of single cells or particles in a stream.)
Assay [7] has as its system KB. The experiment in a line: Cell cycle arrest in human KB cells assessed as accumulation at G2 phase at 1 uM after 96 hrs by propidium iodide staining based flow cytometry (reference value: 9.59%). Format: functional.
The test system of assay [8] is KB. The experiment in a line: Induction of apoptosis in human KB cells assessed as live cells at 1 uM after 48 hrs by Annexin V-FITC/propidium iodide staining based flow cytometry (reference value: 74.6%). In kind it is functional.
In assay [9] the test system is KB. The experiment in a line: Cell cycle arrest in human KB cells assessed as accumulation at S phase at 1 uM after 96 hrs by propidium iodide staining based flow cytometry (reference value: 35.66%). In kind it is functional.
The target in assay [10] is T3, Thymidylate synthase/AICAR transformylase (Homo sapiens) (UniProt P04818+P31939). The assay can be described thus: Inhibition of TS/AICARFTase in human KB cells assessed as reduction in cell proliferation at 1 to 10 nM after 72 hrs in presence of excess of thymidine and AICA by MTT assay. In kind it is cell-based.
T3 sequence (P04818 whole entry, looked up): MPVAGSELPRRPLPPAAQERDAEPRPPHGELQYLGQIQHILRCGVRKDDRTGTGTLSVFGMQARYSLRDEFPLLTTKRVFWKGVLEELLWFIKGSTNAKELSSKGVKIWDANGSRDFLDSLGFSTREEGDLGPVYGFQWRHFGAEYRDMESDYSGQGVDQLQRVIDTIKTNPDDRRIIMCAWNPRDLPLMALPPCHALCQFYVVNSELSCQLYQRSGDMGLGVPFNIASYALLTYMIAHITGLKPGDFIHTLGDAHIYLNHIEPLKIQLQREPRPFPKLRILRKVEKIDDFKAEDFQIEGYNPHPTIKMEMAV
T3 sequence (P31939 whole entry, looked up): as the sequence (P31939 whole entry, looked up) above
For assay [11], the system named is KB. The experiment in a line: Induction of apoptosis in human KB cells assessed as early apoptotic cells at 1 uM after 48 hrs by Annexin V-FITC/propidium iodide staining based flow cytometry (reference value: 16.9%). Format: functional.
Assay [12] deals with KB. The assay can be described thus: Induction of apoptosis in human KB cells assessed as late apoptotic cells at 1 uM after 48 hrs by Annexin V-FITC/propidium iodide staining based flow cytometry (reference value: 5.5%). Format: functional.
Assay [13] has as its system KB. The assay can be described thus: Inhibition of colony formation in human KB cells at 100 nM after 10 to 14 days by methylene blue staining based assay relative to control. In kind it is functional.
In assay [14] the test system is KB. The assay can be described thus: Induction of apoptosis in human KB cells assessed as live cells at 10 uM after 48 hrs by Annexin V-FITC/propidium iodide staining based flow cytometry (reference value: 74.6%). In kind it is functional.
The subject of assay [15] is KB. The experiment in a line: Cell cycle arrest in human KB cells assessed as accumulation at G2 phase at 10 uM after 96 hrs by propidium iodide staining based flow cytometry (reference value: 9.59%). In kind it is functional.
For assay [16], the system named is KB. The assay can be described thus: Cell cycle arrest in human KB cells assessed as accumulation at S phase at 10 uM after 96 hrs by propidium iodide staining based flow cytometry (reference value: 35.66%). In kind it is functional.
Assay [17] deals with KB. The assay can be described thus: Induction of apoptosis in human KB cells assessed as late apoptotic cells at 10 uM after 48 hrs by Annexin V-FITC/propidium iodide staining based flow cytometry (reference value: 5.5%). In kind it is functional.
Assay [18] has as its system KB. The assay can be described thus: Induction of apoptosis in human KB cells assessed as necrotic cells at 10 uM after 48 hrs by Annexin V-FITC/propidium iodide staining based flow cytometry (reference value: 3%). Format: functional.
The test system of assay [19] is KB. The assay can be described thus: Induction of apoptosis in human KB cells assessed as early apoptotic cells at 10 uM after 48 hrs by Annexin V-FITC/propidium iodide staining based flow cytometry (reference value: 16.9%). Format: functional.
The subject of assay [20] is KB. The assay can be described thus: Cell cycle arrest in human KB cells assessed as accumulation at G1 phase at 10 uM after 96 hrs by propidium iodide staining based flow cytometry (reference value: 54.75%). In kind it is functional.
Assay [21] deals with Thymidylate synthase (Homo sapiens) (UniProt P04818). The experiment in a line: Inhibition of thymidylate synthase in human KB cells assessed as reduction in cell proliferation up to 1 uM after 72 hrs in presence of excess of thymidine by MTT assay. In kind it is cell-based.
Chain of Thymidylate synthase (Homo sapiens) (P04818 2-313 limits assumed): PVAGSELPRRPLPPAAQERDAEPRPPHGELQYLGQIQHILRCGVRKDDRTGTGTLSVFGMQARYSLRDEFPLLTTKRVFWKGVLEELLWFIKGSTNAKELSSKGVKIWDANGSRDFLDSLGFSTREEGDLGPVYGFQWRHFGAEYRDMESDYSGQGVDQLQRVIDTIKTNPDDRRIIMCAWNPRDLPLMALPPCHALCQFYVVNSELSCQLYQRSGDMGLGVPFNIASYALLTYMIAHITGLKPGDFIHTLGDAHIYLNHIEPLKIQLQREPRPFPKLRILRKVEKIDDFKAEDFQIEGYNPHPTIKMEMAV
Assay [22] concerns the target T1, Thymidylate synthase/GAR transformylase/AICAR transformylase. The experiment in a line: Inhibition of TS/AICARFTase/GARFTase in human KB cells assessed as reduction in cell proliferation up to 1 uM after 72 hrs in presence of excess of thymidine and adenosine by MTT assay. Format: cell-based.
The target of assay [23] is GAR transformylase/AICAR transformylase (Homo sapiens) (UniProt P31939+P22102). The experiment in a line: Inhibition of AICARFTase/GARFTase in human KB cells assessed as reduction in cell proliferation up to 1 uM after 72 hrs in presence of excess of adenosine by MTT assay. Format: cell-based.
Chain of GAR transformylase/AICAR transformylase (Homo sapiens) (P22102 whole entry, looked up): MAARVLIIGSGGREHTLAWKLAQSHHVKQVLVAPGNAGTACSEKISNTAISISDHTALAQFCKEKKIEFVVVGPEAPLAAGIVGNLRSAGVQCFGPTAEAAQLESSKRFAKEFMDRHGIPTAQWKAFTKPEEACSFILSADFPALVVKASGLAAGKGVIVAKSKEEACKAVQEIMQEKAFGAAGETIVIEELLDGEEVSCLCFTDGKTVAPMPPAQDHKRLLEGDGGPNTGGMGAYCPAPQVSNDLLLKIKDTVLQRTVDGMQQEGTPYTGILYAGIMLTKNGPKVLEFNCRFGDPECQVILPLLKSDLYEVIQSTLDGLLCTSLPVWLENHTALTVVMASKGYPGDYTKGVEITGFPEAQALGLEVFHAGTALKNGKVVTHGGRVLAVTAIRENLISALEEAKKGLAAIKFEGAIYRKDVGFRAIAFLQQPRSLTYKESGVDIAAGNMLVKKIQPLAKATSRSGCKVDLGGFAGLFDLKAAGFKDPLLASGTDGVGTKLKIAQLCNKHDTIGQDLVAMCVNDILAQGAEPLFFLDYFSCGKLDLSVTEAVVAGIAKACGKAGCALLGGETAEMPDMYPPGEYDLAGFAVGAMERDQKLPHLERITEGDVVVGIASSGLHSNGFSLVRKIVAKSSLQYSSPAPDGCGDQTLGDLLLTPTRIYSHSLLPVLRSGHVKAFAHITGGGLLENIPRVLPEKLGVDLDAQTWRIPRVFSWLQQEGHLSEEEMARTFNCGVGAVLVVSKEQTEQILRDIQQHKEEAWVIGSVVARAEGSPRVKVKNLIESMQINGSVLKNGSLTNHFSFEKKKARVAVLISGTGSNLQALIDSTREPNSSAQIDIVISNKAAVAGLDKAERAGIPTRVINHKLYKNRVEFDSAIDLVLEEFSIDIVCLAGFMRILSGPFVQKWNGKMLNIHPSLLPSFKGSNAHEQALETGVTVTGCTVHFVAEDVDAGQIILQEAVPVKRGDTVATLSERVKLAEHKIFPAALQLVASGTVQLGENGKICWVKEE
Chain of GAR transformylase/AICAR transformylase (Homo sapiens) (P31939 whole entry, looked up): as the sequence (P31939 whole entry, looked up) above
In assay [24] the target is T2, Bifunctional purine biosynthesis protein ATIC. The assay can be described thus: Inhibition of AICARFTase in human KB cells assessed as reduction in cell proliferation up to 1 uM after 72 hrs in presence of excess of AICA by MTT assay. Format: cell-based.
Target sequence in this assay (P31939 whole entry, looked up): as above
The target of assay [25] is T3, Thymidylate synthase/AICAR transformylase (Homo sapiens). The assay can be described thus: Inhibition of TS/AICARFTase in human KB cells assessed as reduction in cell proliferation up to 1 uM after 72 hrs in presence of excess of thymidine and AICA by MTT assay. In kind it is cell-based.
For assay [26], the system named is KB. The assay can be described thus: Cell cycle arrest in human KB cells assessed as accumulation at G2 phase at 5 uM after 96 hrs by propidium iodide staining based flow cytometry (reference value: 9.59%). In kind it is functional.
Assay [27] deals with KB. The experiment in a line: Cell cycle arrest in human KB cells assessed as accumulation at S phase at 5 uM after 96 hrs by propidium iodide staining based flow cytometry (reference value: 35.66%). Format: functional.
The subject of assay [28] is KB. The experiment in a line: Cell cycle arrest in human KB cells assessed as accumulation at G1 phase at 5 uM after 96 hrs by propidium iodide staining based flow cytometry (reference value: 54.75%). In kind it is functional.
Assay [29] has as its target T2, Bifunctional purine biosynthesis protein ATIC. The experiment in a line: Inhibition of recombinant human AICARFTase using AICAR as substrate incubated at 37 degC for 30 mins measured after overnight incubation at 4 degC.
Target sequence in this assay (P31939 whole entry): as the sequence (P31939 whole entry, looked up) above
The subject of assay [30] is KB. The assay can be described thus: Potency index, ratio of pemetrexed IC50 to compound IC50 for human KB cells. Format: functional.
The test system of assay [31] is KB. The assay can be described thus: Potency index, ratio of methotrexate IC50 to compound IC50 for human KB cells. In kind it is functional.

T1 sequence (P04818 whole entry, looked up): as the sequence (P04818 whole entry, looked up) above
T1 sequence (P22102 whole entry, looked up): as the sequence (P22102 whole entry, looked up) above
T1 sequence (P31939 whole entry, looked up): as the sequence (P31939 whole entry, looked up) above

Turning to `Nc1nc2[nH]c(CC(=O)NCCC(=O)N[C@@H](CCC(=O)O)C(=O)O)cc2c(=O)[nH]1`, the IC50 in [1] amounted to 1100 nM; in assay [2], 0.092 µM; in [3] it was 2380 nM.
With `CN(Cc1cnc2nc(N)nc(N)c2n1)c1ccc(C(=O)N[C@@H](CCC(=O)O)C(=O)O)cc1` [METHOTREXATE], the IC50 in [1] is 22 nM; in assay [3], 97 nM.
Take `Nc1nc2[nH]c(CC(=O)NCCCC(=O)N[C@@H](CCC(=O)O)C(=O)O)cc2c(=O)[nH]1`: the results for the IC50 in assay [1], in assay [2] and in assay [3] were 948 nM, 0.107 µM and 3640 nM, respectively.
On to `Nc1nc2[nH]c(CC(=O)Nc3ccc(C(=O)N[C@@H](CCC(=O)O)C(=O)O)cc3)cc2c(=O)[nH]1`, for which the inhibition entry in [4] and in [10] was “Active” throughout. In addition, the Activity in assay [5] is on record as 1.3%; in assay [6] it was 31.38%; in [7], 0%; in assay [8] it was 55.4%; in assay [9], 68.62%; in assay [11], 36.2%. In addition, the Activity in [12] is 7.1%. Also, the IC50 was 977 nM in [1], 7.5 ×10⁻³ microM in [2] and 1130 nM in assay [3]. Besides, in assay [13], the inhibition at 0.1 µM was more than 80%.
Regarding `Nc1nc2[nH]cc(CCc3ccc(C(=O)N[C@@H](CCC(=O)O)C(=O)O)cc3)c2c(=O)[nH]1` [PEMETREXED], the figures for the IC50 in assay [1] and in assay [3] were 90 nM and 650 nM, respectively. The Activity in [14] stood at 10.2%; in assay [15] it was 0%; in assay [16], 38.05%; in [17] it was 21.8%; in [18] it was 1%; in assay [19], 67%. Also, the Activity in assay [20] was 61.95%.
In the case of `Nc1nc2[nH]c(CC(=O)NCCCCCC(=O)N[C@@H](CCC(=O)O)C(=O)O)cc2c(=O)[nH]1`, the inhibition entry in assay [21], in [22] and in assay [23] was “inactive” throughout. The IC50 in assay [1] was found to be 563 nM; in [2], 1.4 ×10⁻⁴ microM; in assay [3], 1080 nM. Further, the inhibition result in assay [24] and in [25] was “Active” each time.
In the case of `COc1cc([C@@H]2c3cc4c(cc3[C@@H](O[C@@H]3O[C@@H]5CO[C@@H](C)O[C@H]5[C@H](O)[C@H]3O)[C@H]3COC(=O)[C@H]23)OCO4)cc(OC)c1O` [ETOPOSIDE], the Activity in assay [26] turned out to be 3.19%; in [27], 0%; in [28], 96.81%.
`Nc1nc2ccc(S(=O)(=O)Nc3ccc(C(=O)N[C@@H](CCC(=O)O)C(=O)O)cc3)cc2c(=O)[nH]1`: in assay [29], the inhibition constant Ki stood at 8 nM.
`Nc1nc2[nH]c(CC(=O)NCCCCC(=O)N[C@@H](CCC(=O)O)C(=O)O)cc2c(=O)[nH]1`: the IC50 in assay [1] was determined as 1140 nM; in [2], 0.043 µM; in assay [3], 3810 nM.
As for `Nc1nc2[nH]c(CC(=O)NCC(=O)N[C@@H](CCC(=O)O)C(=O)O)cc2c(=O)[nH]1`, the Activity in assay [5] is given as 0.3%; in [6], 52.6%; in assay [7], 2.43%; in assay [8], 57.9%; in [9], 44.96%; in [11], 35.4%. The Activity in [12] is 6.4%. The inhibition result in assay [21], in assay [22] and in [23] was “inactive” throughout. In addition, the IC50 came to 786 nM in assay [1], 7.8 ×10⁻⁵ uM in [2] and 913 nM in assay [3]. In addition, the “Ratio IC50” value in assay [30] is on record as 1000; in assay [31], 140. Moreover, the inhibition result in assay [24] and in [25] was “Active” each time. This molecule had an inhibition at 0.1 µM in assay [13] of more than 90%.
